Measured values reported in ChEMBL document CHEMBL3867477 (Bioorg Med Chem Lett, 2016).

Key:
CHO = assay: Selectivity index, ratio of Ki for human OX2 receptor expressed on CHO cell membrane to Ki for Ile408-Val variant human OX1 receptor expressed on CHO cell membrane; format: cell-based
[1] = Oral bioavailability in rat at 10 mg/kg; format: ADME, organism-based; settings: in vivo
Orexin receptor type 2 = molecular target: T1, Orexin receptor type 2 (Homo sapiens, UniProt O43614); assay: Displacement of (2S)-N-(2-pyrrol-1-ylphenyl)-1-[2-[1-(tritritiomethyl)benzimidazol-2-yl]sulfanylacetyl]pyrrolidine-2-carboxamide from human OX2 receptor expressed on CHO cell membrane measured after 3 hrs by TopCount method; format: cell membranes
T1 sequence (O43614 whole entry): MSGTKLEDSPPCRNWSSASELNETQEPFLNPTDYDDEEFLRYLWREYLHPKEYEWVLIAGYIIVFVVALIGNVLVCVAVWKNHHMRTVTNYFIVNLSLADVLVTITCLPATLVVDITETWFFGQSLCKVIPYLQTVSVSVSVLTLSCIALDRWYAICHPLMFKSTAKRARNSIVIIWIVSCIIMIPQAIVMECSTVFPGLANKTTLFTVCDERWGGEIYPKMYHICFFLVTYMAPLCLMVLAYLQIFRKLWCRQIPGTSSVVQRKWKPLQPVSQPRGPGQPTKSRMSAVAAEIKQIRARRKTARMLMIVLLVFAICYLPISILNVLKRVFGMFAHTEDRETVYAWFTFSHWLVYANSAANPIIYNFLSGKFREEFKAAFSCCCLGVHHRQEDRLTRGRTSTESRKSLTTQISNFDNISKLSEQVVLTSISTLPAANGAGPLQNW

[2] = Clearance in rat at 2 mg/kg, iv; format: ADME, organism-based; settings: in vivo
[3] = Intrinsic clearance in rat liver microsomes; format: ADME; settings: read-out: CLH
[4] = Displacement of (2S)-N-(2-phenylphenyl)-1-[2-[1-(tritritiomethyl)benzimidazol-2-yl]sulfanylacetyl]pyrrolidine-2-carboxamide from human OX1 receptor Ile408-Val mutant expressed on CHO cell membrane measured after 3 hrs by TopCount method; format: cell membranes
[5] = molecular target: T2, Orexin/Hypocretin receptor type 1 (Homo sapiens) (UniProt O43613); assay: Potency index, ratio of PE8 Ki to compound Ki for human OX1 receptor
T2 sequence (whole entry): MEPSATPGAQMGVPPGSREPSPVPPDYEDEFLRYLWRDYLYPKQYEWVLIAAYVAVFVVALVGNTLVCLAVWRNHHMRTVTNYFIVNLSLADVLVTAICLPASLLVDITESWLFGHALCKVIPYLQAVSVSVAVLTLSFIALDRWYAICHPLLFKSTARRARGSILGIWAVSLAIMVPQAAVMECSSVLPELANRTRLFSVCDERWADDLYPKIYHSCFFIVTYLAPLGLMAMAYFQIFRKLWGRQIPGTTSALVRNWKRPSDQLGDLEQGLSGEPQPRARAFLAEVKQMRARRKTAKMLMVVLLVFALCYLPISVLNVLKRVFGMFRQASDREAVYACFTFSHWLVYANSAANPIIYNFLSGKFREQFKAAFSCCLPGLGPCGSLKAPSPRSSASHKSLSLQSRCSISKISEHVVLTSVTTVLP

[6] = Aqueous solubility of the compound at pH 2; format: physicochemical; settings: aqueous medium
[7] = Aqueous solubility of the compound at pH 7; format: physicochemical; settings: aqueous medium
[8] = molecular target: Sodium channel protein type 5 subunit alpha (Homo sapiens, UniProt Q14524); assay: Inhibition of Nav1.5 (unknown origin)
[9] = molecular target: Voltage-dependent L-type calcium channel subunit alpha-1C (Homo sapiens, UniProt Q13936); assay: Inhibition of Cav1.2 (unknown origin)
Voltage-dependent L-type calcium channel subunit alpha-1C, sequence (Q13936 whole entry): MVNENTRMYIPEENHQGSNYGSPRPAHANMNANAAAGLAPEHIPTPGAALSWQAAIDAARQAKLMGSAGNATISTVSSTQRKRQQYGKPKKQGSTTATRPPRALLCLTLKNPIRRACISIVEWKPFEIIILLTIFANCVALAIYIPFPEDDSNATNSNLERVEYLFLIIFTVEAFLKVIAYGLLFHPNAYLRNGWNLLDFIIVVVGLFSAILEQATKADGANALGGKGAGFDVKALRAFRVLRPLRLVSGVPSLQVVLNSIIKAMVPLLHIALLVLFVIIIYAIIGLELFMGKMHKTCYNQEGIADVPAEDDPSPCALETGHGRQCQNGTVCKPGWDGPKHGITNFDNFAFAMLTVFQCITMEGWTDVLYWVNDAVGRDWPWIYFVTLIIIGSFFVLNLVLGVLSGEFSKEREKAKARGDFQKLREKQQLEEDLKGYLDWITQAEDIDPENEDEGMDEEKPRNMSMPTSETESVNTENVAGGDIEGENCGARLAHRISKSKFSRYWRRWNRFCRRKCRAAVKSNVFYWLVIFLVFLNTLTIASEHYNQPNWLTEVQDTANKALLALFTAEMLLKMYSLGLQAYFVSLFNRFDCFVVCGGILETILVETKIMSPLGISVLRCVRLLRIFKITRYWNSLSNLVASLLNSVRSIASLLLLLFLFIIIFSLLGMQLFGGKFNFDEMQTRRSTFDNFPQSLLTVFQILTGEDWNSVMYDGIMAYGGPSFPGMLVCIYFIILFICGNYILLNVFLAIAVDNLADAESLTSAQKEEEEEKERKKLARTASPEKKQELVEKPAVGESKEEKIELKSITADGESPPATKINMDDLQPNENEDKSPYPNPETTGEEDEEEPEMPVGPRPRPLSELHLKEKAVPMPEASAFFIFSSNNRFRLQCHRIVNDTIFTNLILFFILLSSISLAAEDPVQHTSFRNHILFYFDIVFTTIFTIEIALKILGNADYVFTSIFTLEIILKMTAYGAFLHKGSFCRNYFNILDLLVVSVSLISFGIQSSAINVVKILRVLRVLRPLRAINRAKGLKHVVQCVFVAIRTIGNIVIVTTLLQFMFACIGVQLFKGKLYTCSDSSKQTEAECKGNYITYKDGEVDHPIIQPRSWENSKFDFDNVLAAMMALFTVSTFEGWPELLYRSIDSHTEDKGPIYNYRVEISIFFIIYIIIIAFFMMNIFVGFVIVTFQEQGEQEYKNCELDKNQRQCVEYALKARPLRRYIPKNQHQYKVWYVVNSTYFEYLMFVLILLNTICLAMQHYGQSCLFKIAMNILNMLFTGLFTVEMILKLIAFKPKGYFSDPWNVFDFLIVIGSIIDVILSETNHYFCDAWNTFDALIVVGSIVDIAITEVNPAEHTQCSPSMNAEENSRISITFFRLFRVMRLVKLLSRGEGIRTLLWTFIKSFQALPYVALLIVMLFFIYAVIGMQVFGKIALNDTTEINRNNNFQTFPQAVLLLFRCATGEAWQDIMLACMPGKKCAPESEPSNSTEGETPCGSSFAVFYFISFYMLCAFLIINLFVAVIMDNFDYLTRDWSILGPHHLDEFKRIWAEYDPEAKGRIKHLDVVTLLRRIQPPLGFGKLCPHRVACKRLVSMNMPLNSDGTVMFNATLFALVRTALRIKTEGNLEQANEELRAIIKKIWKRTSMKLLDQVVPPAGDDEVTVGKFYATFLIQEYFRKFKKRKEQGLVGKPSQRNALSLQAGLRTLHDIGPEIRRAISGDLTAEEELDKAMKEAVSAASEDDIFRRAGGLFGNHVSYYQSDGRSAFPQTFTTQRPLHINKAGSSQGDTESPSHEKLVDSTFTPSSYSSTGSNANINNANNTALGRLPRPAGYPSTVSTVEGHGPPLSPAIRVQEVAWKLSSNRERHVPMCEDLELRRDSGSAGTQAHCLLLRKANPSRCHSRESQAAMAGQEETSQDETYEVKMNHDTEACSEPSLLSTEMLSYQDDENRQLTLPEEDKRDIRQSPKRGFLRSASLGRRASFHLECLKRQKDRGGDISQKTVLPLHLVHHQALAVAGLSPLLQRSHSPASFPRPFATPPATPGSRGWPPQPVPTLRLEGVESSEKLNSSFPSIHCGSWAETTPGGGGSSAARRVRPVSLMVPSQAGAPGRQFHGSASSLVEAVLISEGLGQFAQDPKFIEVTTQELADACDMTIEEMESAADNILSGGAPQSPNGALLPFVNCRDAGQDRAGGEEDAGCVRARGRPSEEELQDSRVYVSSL

Sodium channel protein type 5 subunit alpha, sequence (Q14524 whole entry): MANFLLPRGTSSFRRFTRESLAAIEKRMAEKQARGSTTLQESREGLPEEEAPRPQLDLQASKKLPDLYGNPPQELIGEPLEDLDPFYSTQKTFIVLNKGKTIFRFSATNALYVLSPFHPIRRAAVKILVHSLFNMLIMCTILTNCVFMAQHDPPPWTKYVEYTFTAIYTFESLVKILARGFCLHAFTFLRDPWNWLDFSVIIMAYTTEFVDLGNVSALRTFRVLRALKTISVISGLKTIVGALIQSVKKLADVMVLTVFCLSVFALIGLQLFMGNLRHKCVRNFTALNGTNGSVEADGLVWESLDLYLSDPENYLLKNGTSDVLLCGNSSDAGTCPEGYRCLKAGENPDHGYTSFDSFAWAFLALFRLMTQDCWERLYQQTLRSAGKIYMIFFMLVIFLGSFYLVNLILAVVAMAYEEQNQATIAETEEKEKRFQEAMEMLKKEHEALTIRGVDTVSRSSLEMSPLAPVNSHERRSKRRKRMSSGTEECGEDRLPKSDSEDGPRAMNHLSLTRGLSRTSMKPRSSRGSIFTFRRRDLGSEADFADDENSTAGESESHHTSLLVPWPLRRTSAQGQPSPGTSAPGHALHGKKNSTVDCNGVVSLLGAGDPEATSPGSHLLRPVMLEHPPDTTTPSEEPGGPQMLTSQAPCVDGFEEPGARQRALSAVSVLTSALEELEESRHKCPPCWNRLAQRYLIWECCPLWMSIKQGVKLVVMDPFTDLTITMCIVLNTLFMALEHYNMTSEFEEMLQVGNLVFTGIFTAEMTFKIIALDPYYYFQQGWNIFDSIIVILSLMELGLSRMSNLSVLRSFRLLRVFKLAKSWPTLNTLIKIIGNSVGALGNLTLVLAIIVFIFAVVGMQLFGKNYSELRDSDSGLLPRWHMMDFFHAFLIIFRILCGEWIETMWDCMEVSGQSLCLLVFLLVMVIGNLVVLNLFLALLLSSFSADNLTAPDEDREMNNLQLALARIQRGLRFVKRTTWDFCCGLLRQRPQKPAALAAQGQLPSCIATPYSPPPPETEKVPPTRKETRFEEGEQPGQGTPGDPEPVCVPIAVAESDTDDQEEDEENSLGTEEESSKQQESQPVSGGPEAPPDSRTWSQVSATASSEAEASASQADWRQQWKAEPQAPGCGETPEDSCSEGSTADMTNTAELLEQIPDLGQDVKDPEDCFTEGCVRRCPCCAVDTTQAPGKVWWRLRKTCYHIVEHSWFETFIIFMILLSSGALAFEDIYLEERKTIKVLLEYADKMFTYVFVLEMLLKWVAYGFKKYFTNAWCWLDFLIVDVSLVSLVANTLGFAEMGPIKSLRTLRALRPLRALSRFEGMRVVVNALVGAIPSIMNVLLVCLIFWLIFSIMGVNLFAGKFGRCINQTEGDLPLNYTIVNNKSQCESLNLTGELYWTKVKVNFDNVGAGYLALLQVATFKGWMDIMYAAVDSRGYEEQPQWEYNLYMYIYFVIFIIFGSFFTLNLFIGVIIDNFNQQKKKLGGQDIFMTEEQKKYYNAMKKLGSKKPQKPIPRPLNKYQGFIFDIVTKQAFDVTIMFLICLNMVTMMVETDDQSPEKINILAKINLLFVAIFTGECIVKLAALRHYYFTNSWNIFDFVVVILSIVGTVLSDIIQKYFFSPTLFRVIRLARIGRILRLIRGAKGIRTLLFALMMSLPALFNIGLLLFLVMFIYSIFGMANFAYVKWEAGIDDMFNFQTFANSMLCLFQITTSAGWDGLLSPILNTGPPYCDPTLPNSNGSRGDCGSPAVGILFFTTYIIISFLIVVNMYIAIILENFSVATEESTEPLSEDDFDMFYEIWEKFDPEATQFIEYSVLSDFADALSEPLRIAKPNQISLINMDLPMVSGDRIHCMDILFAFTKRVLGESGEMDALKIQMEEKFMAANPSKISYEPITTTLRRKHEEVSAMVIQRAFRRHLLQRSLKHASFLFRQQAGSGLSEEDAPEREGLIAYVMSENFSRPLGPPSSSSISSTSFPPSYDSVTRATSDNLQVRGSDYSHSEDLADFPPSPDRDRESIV

Row | SMILES | Ratio Ki (CHO) | bioavailability [1] [%] | Ki (Orexin receptor type 2) [nM] | clearance [2] [mL/min/kg] | CLint scaled [3] [mL/min/kg] | Ki [4] [nM] | Ratio Ki [5] | solubility [6] [µM] | solubility [7] [µM] | inhibition (INH) [8] | inhibition (INH) [9]
1 | O=C(c1cccc2[nH]cnc12)N1CCC(F)(F)[C@@H](Oc2ccc3ccccc3n2)C1 | 371 | 10 | 1410 | 69 | 829 | 3.8 |  |  |  |  | 
2 | O=C(c1ccccc1-n1cccn1)N1CCC(F)(F)[C@@H](Oc2ccc3ccccc3n2)C1 | 564 |  | 271 |  |  | 0.48 | 2 |  |  |  | 
3 | O=C(c1cccc2[nH]ncc12)N1CCC(F)(F)[C@@H](Oc2ccc3ccccc3n2)C1 | > 744 |  | > 1930 | 87.5 | 761 | 2.6 |  |  |  |  | 
4 | O=C(c1nccc2[nH]ccc12)N1CCC(F)(F)[C@@H](Oc2ccc3ccccc3n2)C1 | 325 |  | 521 |  |  | 1.6 |  | > 150 | > 150 | Active | Active
